In the supplement of paper PMC10307832:

Experiments:
Assay in all cases: relative viability (nuclei count vs DMSO), 5 days (fraction); higher = more cells survive
NCI-H1915 = test system: NCI-H1915
Procedure, shortened: (§1)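 A single step with final 0.05% Triton X-100, 1% formaldehyde and 1 ug/ml Hoechst fixed the cells and stained nuclei 5 days after treatment. Lung cancer cell lines in 1536-well plates had been treated by pin tool the day after seeding with one drug alone or a fixed anchor-drug dose plus five library-drug doses (not always all listed) in √10 steps, and nuclei were counted on 4× images. Relative viability is the ratio of nuclei in treated wells to nuclei in vehicle wells, taken as the median of duplicate plates.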

LCLC-97TM1 = test system: LCLC-97TM1
Procedure, shortened: as §1

PC-14 = test system: PC-14
Procedure, shortened: as §1

H3255 = test system: H3255
Procedure, shortened: as §1

NCI-H2347 = test system: NCI-H2347
Procedure, shortened: as §1

NCI-H647 = test system: NCI-H647
Procedure, shortened: as §1

EPLC-272H = test system: EPLC-272H
Procedure, shortened: as §1

ChaGo-K-1 = test system: ChaGo-K-1
Procedure, shortened: as §1

NCI-H661 = test system: NCI-H661
Procedure, shortened: as §1

RERF-LC-KJ = test system: RERF-LC-KJ
Procedure, shortened: as §1

LC-2-ad = test system: LC-2-ad
Procedure, shortened: as §1

NCI-H2087 = test system: NCI-H2087
Procedure, shortened: as §1

NCI-H23 = test system: NCI-H23
Procedure, shortened: as §1

201T = test system: 201T
Procedure, shortened: as §1

NCI-H1666 = test system: NCI-H1666
Procedure, shortened: as §1

HCC-827 = test system: HCC-827
Procedure, shortened: as §1

NCI-H650 = test system: NCI-H650
Procedure, shortened: as §1

NCI-H2126 = test system: NCI-H2126
Procedure, shortened: as §1

NCI-H2405 = test system: NCI-H2405
Procedure, shortened: as §1

COR-L 105 = test system: COR-L 105
Procedure, shortened: as §1

NCI-H520 = test system: NCI-H520
Procedure, shortened: as §1

HCC-78 = test system: HCC-78
Procedure, shortened: as §1

## CC(=O)O[C@@]12CO[C@@H]1C[C@H](O)[C@@]1(C)C(=O)[C@H](O)C3=C(C)[C@@H](OC(=O)[C@H](O)[C@@H](NC(=O)OC(C)(C)C)c4ccccc4)C[C@@](O)([C@@H](OC(=O)c4ccccc4)[C@H]21)C3(C)C [Docetaxel] + COc1cccc2cc(-c3nc([C@H]4CC[C@H](C(=O)O)CC4)n4ncnc(N)c34)[nH]c12 [OSI-027] (partner 0.5 µM)
NCI-H1915; first compound 0.0002 µM
  relative viability: 0.603
NCI-H1915; first compound 0.000632 µM
  relative viability: 0.505
NCI-H1915; first compound 0.006325 µM
  relative viability: 0.224
NCI-H1915; first compound 0.02 µM
  relative viability: 0.14
LCLC-97TM1; first compound 0.0002 µM
  relative viability: 0.696
LCLC-97TM1; first compound 0.000632 µM
  relative viability: 0.603
LCLC-97TM1; first compound 0.002 µM
  relative viability: 0.352
LCLC-97TM1; first compound 0.006325 µM
  relative viability: 0.182
LCLC-97TM1; first compound 0.02 µM
  relative viability: 0.118
PC-14; first compound 0.0002 µM
  relative viability: 0.759
PC-14; first compound 0.000632 µM
  relative viability: 0.549
PC-14; first compound 0.002 µM
  relative viability: 0.121
PC-14; first compound 0.006325 µM
  relative viability: 0.0548
PC-14; first compound 0.02 µM
  relative viability: 0.0206
H3255; first compound 0.0002 µM
  relative viability: 0.66
H3255; first compound 0.000632 µM
  relative viability: 0.67
H3255; first compound 0.002 µM
  relative viability: 0.51
H3255; first compound 0.006325 µM
  relative viability: 0.369
H3255; first compound 0.02 µM
  relative viability: 0.277
NCI-H2347; first compound 0.0002 µM
  relative viability: 0.435
NCI-H2347; first compound 0.000632 µM
  relative viability: 0.382
NCI-H2347; first compound 0.002 µM
  relative viability: 0.329
NCI-H2347; first compound 0.006325 µM
  relative viability: 0.282
NCI-H2347; first compound 0.02 µM
  relative viability: 0.249
NCI-H647; first compound 0.0002 µM
  relative viability: 0.524
NCI-H647; first compound 0.000632 µM
  relative viability: 0.432
NCI-H647; first compound 0.002 µM
  relative viability: 0.229
NCI-H647; first compound 0.006325 µM
  relative viability: 0.0929
NCI-H647; first compound 0.02 µM
  relative viability: 0.0717
EPLC-272H; first compound 0.0002 µM
  relative viability: 0.258
EPLC-272H; first compound 0.000632 µM
  relative viability: 0.235
EPLC-272H; first compound 0.002 µM
  relative viability: 0.228
EPLC-272H; first compound 0.006325 µM
  relative viability: 0.159
EPLC-272H; first compound 0.02 µM
  relative viability: 0.124
ChaGo-K-1; first compound 0.0002 µM
  relative viability: 0.554
ChaGo-K-1; first compound 0.000632 µM
  relative viability: 0.459
ChaGo-K-1; first compound 0.002 µM
  relative viability: 0.301
ChaGo-K-1; first compound 0.006325 µM
  relative viability: 0.23
ChaGo-K-1; first compound 0.02 µM
  relative viability: 0.129
NCI-H661; first compound 0.0002 µM
  relative viability: 0.694
NCI-H661; first compound 0.000632 µM
  relative viability: 0.727
NCI-H661; first compound 0.002 µM
  relative viability: 0.521
NCI-H661; first compound 0.006325 µM
  relative viability: 0.29
NCI-H661; first compound 0.02 µM
  relative viability: 0.307
RERF-LC-KJ; first compound 0.0002 µM
  relative viability: 0.564
RERF-LC-KJ; first compound 0.000632 µM
  relative viability: 0.543
RERF-LC-KJ; first compound 0.002 µM
  relative viability: 0.297
RERF-LC-KJ; first compound 0.006325 µM
  relative viability: 0.248
RERF-LC-KJ; first compound 0.02 µM
  relative viability: 0.161
LC-2-ad; first compound 0.0002 µM
  relative viability: 0.598
LC-2-ad; first compound 0.000632 µM
  relative viability: 0.589
LC-2-ad; first compound 0.002 µM
  relative viability: 0.441
LC-2-ad; first compound 0.006325 µM
  relative viability: 0.415
NCI-H2087; first compound 0.0002 µM
  relative viability: 0.464
NCI-H2087; first compound 0.000632 µM
  relative viability: 0.359
NCI-H2087; first compound 0.002 µM
  relative viability: 0.142
NCI-H2087; first compound 0.006325 µM
  relative viability: 0.113
NCI-H2087; first compound 0.02 µM
  relative viability: 0.111
NCI-H23; first compound 0.0002 µM
  relative viability: 0.804
NCI-H23; first compound 0.000632 µM
  relative viability: 0.587
NCI-H23; first compound 0.002 µM
  relative viability: 0.238
NCI-H23; first compound 0.006325 µM
  relative viability: 0.168
NCI-H23; first compound 0.02 µM
  relative viability: 0.107
201T; first compound 0.0002 µM
  relative viability: 0.528
201T; first compound 0.000632 µM
  relative viability: 0.442
201T; first compound 0.002 µM
  relative viability: 0.258
201T; first compound 0.006325 µM
  relative viability: 0.132
201T; first compound 0.02 µM
  relative viability: 0.0963
NCI-H1666; first compound 0.0002 µM
  relative viability: 0.739
NCI-H1666; first compound 0.000632 µM
  relative viability: 0.641
NCI-H1666; first compound 0.002 µM
  relative viability: 0.574
NCI-H1666; first compound 0.006325 µM
  relative viability: 0.491
NCI-H1666; first compound 0.02 µM
  relative viability: 0.322
HCC-827; first compound 0.0002 µM
  relative viability: 0.783
HCC-827; first compound 0.000632 µM
  relative viability: 0.848
HCC-827; first compound 0.002 µM
  relative viability: 0.52
HCC-827; first compound 0.006325 µM
  relative viability: 0.226
HCC-827; first compound 0.02 µM
  relative viability: 0.169
NCI-H650; first compound 0.0002 µM
  relative viability: 0.436
NCI-H650; first compound 0.000632 µM
  relative viability: 0.375
NCI-H650; first compound 0.002 µM
  relative viability: 0.266
NCI-H650; first compound 0.006325 µM
  relative viability: 0.265
NCI-H650; first compound 0.02 µM
  relative viability: 0.181
NCI-H2126; first compound 0.0002 µM
  relative viability: 0.742
NCI-H2126; first compound 0.000632 µM
  relative viability: 0.622
NCI-H2126; first compound 0.002 µM
  relative viability: 0.281
NCI-H2126; first compound 0.006325 µM
  relative viability: 0.297
NCI-H2126; first compound 0.02 µM
  relative viability: 0.221
NCI-H2405; first compound 0.0002 µM
  relative viability: 0.666
NCI-H2405; first compound 0.000632 µM
  relative viability: 0.628
NCI-H2405; first compound 0.002 µM
  relative viability: 0.422
NCI-H2405; first compound 0.006325 µM
  relative viability: 0.333
NCI-H2405; first compound 0.02 µM
  relative viability: 0.255
COR-L 105; first compound 0.0002 µM
  relative viability: 0.569
COR-L 105; first compound 0.000632 µM
  relative viability: 0.654
COR-L 105; first compound 0.002 µM
  relative viability: 0.408
COR-L 105; first compound 0.006325 µM
  relative viability: 0.277
COR-L 105; first compound 0.02 µM
  relative viability: 0.289
NCI-H520; first compound 0.0002 µM
  relative viability: 0.209
NCI-H520; first compound 0.000632 µM
  relative viability: 0.259
NCI-H520; first compound 0.002 µM
  relative viability: 0.276
NCI-H520; first compound 0.006325 µM
  relative viability: 0.257
NCI-H520; first compound 0.02 µM
  relative viability: 0.153
HCC-78; first compound 0.0002 µM
  relative viability: 0.321
HCC-78; first compound 0.000632 µM
  relative viability: 0.308
HCC-78; first compound 0.002 µM
  relative viability: 0.315
HCC-78; first compound 0.006325 µM
  relative viability: 0.278
HCC-78; first compound 0.02 µM
  relative viability: 0.284
